In ChEMBL document CHEMBL3885881, “DrugMatrix”:

Species on record: Rattus norvegicus
Experiment: DrugMatrix - Regimen: Daily Repeat
Type: toxicity, organism-based, Sprague-Dawley
Design: regimen Daily Repeat, gender Male, age 6-8 weeks
Conditions: in vivo, po, route oral GAVAGE, […]; for SODIUM / TOTAL BILIRUBIN / TOTAL PROTEIN / URIC ACID / ALANINE AMINOTRANSFERASE / ALBUMIN / ALKALINE PHOSPHATASE / ASPARTATE AMINOTRANSFERASE / BLOOD UREA NITROGEN / CARBON DIOXIDE / CHLORIDE / CHOLESTEROL / CREATINE PHOSPHOKINASE / CREATININE / GLUCOSE / LACTATE DEHYDROGENASE / LIPASE / PHOSPHORUS / POTASSIUM: tissue Plasma; for ABSOLUTE BASOPHIL / ABSOLUTE EOSINOPHIL / ABSOLUTE LYMPHOCYTE / ABSOLUTE MONOCYTE / ABSOLUTE SEGMENTED NEUTROPHIL / BASOPHIL / EOSINOPHIL / ERYTHROCYTE COUNT / HEMATOCRIT / HEMOGLOBIN / LEUKOCYTE COUNT / LYMPHOCYTE / MEAN CORPUSCULAR HEMOGLOBIN / MEAN CORPUSCULAR HEMOGLOBIN CONCENTRATION / MEAN CORPUSCULAR VOLUME / MONOCYTE / NEUTROPHIL / NUCLEATED RED BLOOD CELLS / PLATELET COUNT: tissue Blood
[1] = 12 mg/kg, 72 h, dose level M1, time 3 day
[2] = 12 mg/kg, 120 h, dose level M1, time 5 day
[3] = 75 mg/kg, 72 h, dose level M2, time 3 day
[4] = 75 mg/kg, 120 h, dose level M2, time 5 day

## C#C[C@]1(O)CC[C@H]2[C@@H]3CCC4=CC(=O)CC[C@@H]4[C@H]3CC[C@@]21C [NORETHINDRONE]
[1]
  SODIUM: 144.57 MEQ/L
  TOTAL BILIRUBIN: 0.1 mg/dL
  TOTAL PROTEIN: 6.07 G/DL
  URIC ACID: 1 mg/dL
[2]
  ABSOLUTE BASOPHIL: 0 CELLS/uL
  ABSOLUTE EOSINOPHIL: 35 CELLS/uL
  ABSOLUTE LYMPHOCYTE: 6197.67 CELLS/uL
  ABSOLUTE MONOCYTE: 151.67 CELLS/uL
  ABSOLUTE SEGMENTED NEUTROPHIL: 315.67 CELLS/uL
  BASOPHIL: 0%
  EOSINOPHIL: 0.67%
  ERYTHROCYTE COUNT: 6.19 x10E6/uL
  HEMATOCRIT: 37.27%
  HEMOGLOBIN: 14.27 G/DL
  LEUKOCYTE COUNT: 6.7 x10E3/uL
  LYMPHOCYTE: 92.67%
  MEAN CORPUSCULAR HEMOGLOBIN: 23.1 pg
  MEAN CORPUSCULAR HEMOGLOBIN CONCENTRATION: 38.3 G/DL
  MEAN CORPUSCULAR VOLUME: 60.33 fL
  MONOCYTE: 2%
  NEUTROPHIL: 4.67%
  NUCLEATED RED BLOOD CELLS: 0 /100WBC
  PLATELET COUNT: 1179.67 x10E3/uL
  ALANINE AMINOTRANSFERASE: 68.33 u/L
  ALBUMIN: 4.67 G/DL
  ALKALINE PHOSPHATASE: 474.33 u/L
  ASPARTATE AMINOTRANSFERASE: 95.67 u/L
  BLOOD UREA NITROGEN: 10 mg/dL
  CARBON DIOXIDE: 25.67 mmol/L
  CHLORIDE: 106.67 MEQ/L
  CHOLESTEROL: 26 mg/dL
  CREATINE PHOSPHOKINASE: 277.33 u/L
  CREATININE: 0.25 mg/dL
  GLUCOSE: 177.33 mg/dL
  LACTATE DEHYDROGENASE: 205 u/L
  LIPASE: 8 u/L
  PHOSPHORUS: 12.13 mg/dL
  POTASSIUM: 5.86 MEQ/L
  SODIUM: 149.4 MEQ/L
  TOTAL BILIRUBIN: 0.1 mg/dL
  TOTAL PROTEIN: 6.73 G/DL
  URIC ACID: 1.83 mg/dL
[3]
  ABSOLUTE BASOPHIL: 0 CELLS/uL
  ABSOLUTE EOSINOPHIL: 0 CELLS/uL
  ABSOLUTE LYMPHOCYTE: 4761.67 CELLS/uL
  ABSOLUTE MONOCYTE: 38.67 CELLS/uL
  ABSOLUTE SEGMENTED NEUTROPHIL: 433 CELLS/uL
  BASOPHIL: 0%
  EOSINOPHIL: 0%
  ERYTHROCYTE COUNT: 5.41 x10E6/uL
  HEMATOCRIT: 33.4%
  HEMOGLOBIN: 12.87 G/DL
  LEUKOCYTE COUNT: 5.23 x10E3/uL
  LYMPHOCYTE: 91%
  MEAN CORPUSCULAR HEMOGLOBIN: 23.77 pg
  MEAN CORPUSCULAR HEMOGLOBIN CONCENTRATION: 38.53 G/DL
  MEAN CORPUSCULAR VOLUME: 61.77 fL
  MONOCYTE: 0.67%
  NEUTROPHIL: 8.33%
  NUCLEATED RED BLOOD CELLS: 0 /100WBC
  PLATELET COUNT: 1166.67 x10E3/uL
  ALANINE AMINOTRANSFERASE: 57 u/L
  ALBUMIN: 4.57 G/DL
  ALKALINE PHOSPHATASE: 692 u/L
  ASPARTATE AMINOTRANSFERASE: 76.67 u/L
  BLOOD UREA NITROGEN: 7.67 mg/dL
  CARBON DIOXIDE: 30.67 mmol/L
  CHLORIDE: 104 MEQ/L
  CHOLESTEROL: 29 mg/dL
  CREATINE PHOSPHOKINASE: 225 u/L
  CREATININE: 0.14 mg/dL
  GLUCOSE: 135.67 mg/dL
  LACTATE DEHYDROGENASE: 89 u/L
  LIPASE: 8 u/L
  PHOSPHORUS: 10.6 mg/dL
  POTASSIUM: 5.59 MEQ/L
  SODIUM: 145.07 MEQ/L
  TOTAL BILIRUBIN: 0.17 mg/dL
  TOTAL PROTEIN: 6.37 G/DL
  URIC ACID: 0.63 mg/dL
[4]
  ABSOLUTE BASOPHIL: 0 CELLS/uL
  ABSOLUTE EOSINOPHIL: 0 CELLS/uL
  ABSOLUTE LYMPHOCYTE: 9250.67 CELLS/uL
  ABSOLUTE MONOCYTE: 86 CELLS/uL
  ABSOLUTE SEGMENTED NEUTROPHIL: 330 CELLS/uL
  BASOPHIL: 0%
  EOSINOPHIL: 0%
  ERYTHROCYTE COUNT: 6.52 x10E6/uL
  HEMATOCRIT: 38.67%
  HEMOGLOBIN: 14.53 G/DL
  LEUKOCYTE COUNT: 9.67 x10E3/uL
  LYMPHOCYTE: 95.33%
  MEAN CORPUSCULAR HEMOGLOBIN: 22.3 pg
  MEAN CORPUSCULAR HEMOGLOBIN CONCENTRATION: 37.6 G/DL
  MEAN CORPUSCULAR VOLUME: 59.27 fL
  MONOCYTE: 1%
  NEUTROPHIL: 3.67%
  NUCLEATED RED BLOOD CELLS: 0 /100WBC
  PLATELET COUNT: 928.67 x10E3/uL
  ALANINE AMINOTRANSFERASE: 49 u/L
  ALBUMIN: 5 G/DL
  ALKALINE PHOSPHATASE: 440.33 u/L
  ASPARTATE AMINOTRANSFERASE: 68.33 u/L
  BLOOD UREA NITROGEN: 7 mg/dL
  CARBON DIOXIDE: 27 mmol/L
  CHLORIDE: 104.33 MEQ/L
  CHOLESTEROL: 35 mg/dL
  CREATINE PHOSPHOKINASE: 233.67 u/L
  CREATININE: 0.18 mg/dL
  GLUCOSE: 155.67 mg/dL
  LACTATE DEHYDROGENASE: 123.33 u/L
  LIPASE: 7.33 u/L
  PHOSPHORUS: 11 mg/dL
  POTASSIUM: 5.7 MEQ/L
  SODIUM: 147.73 MEQ/L
  TOTAL BILIRUBIN: 0.13 mg/dL
  TOTAL PROTEIN: 7.03 G/DL
  URIC ACID: 1.5 mg/dL
